Active and inactive are the calls of the source. The calls are words filed in the database; no cut-off is given here.
How the values were obtained:
[1] = system: Aspergillus flavus; test: Antimicrobial activity against Aspergillus flavus; format: functional, organism-based
[2] = system: Candida albicans; test: Antimicrobial activity against Candida albicans; format: functional, organism-based
[3] = system: Escherichia coli; test: Antimicrobial activity against Escherichia coli; format: functional, organism-based
[4] = system: Staphylococcus aureus; test: Antimicrobial activity against Staphylococcus aureus; format: functional, organism-based
[5] = system: Plasmodium falciparum; test: Antiplasmodial activity chloroquine-sensitive Plasmodium falciparum NF54 by lactate dehydrogenase assay; format: functional, organism-based
[6] = system: Plasmodium falciparum; test: Antiplasmodial activity chloroquine-resistant Plasmodium falciparum Dd2 by lactate dehydrogenase assay; format: functional, organism-based
[7] = system: CHO; test: Cytotoxicity against CHO cells by MTT assay; format: cell-based; conditions: Cricetulus griseus
[8] = in vitro; conditions: hamster
Description: Selectivity index, ratio of IC50 for CHO cells to IC50 for chloroquine-sensitive Plasmodium falciparum NF54

| Compound | Activity [1] | Activity [2] | Activity [3] | Activity [4] | IC50 [5] [µM] | IC50 [6] [µM] | IC50 [7] [µM] | selectivity ratio [8] |
| --- | --- | --- | --- | --- | --- | --- | --- | --- |
| CC(Br)(CBr)Cn1cc(Br)c(=O)c2ccccc21 (stereo unspecified) | inactive | inactive | inactive | inactive | 35.2 |  |  |  |
| C[C@H]1[C@H](OC(=O)CCC(=O)O)O[C@@H]2O[C@@]3(C)CC[C@H]4[C@H](C)CC[C@@H]1[C@@]24OO3 [ARTESUNATE] |  |  |  |  | 0.005 | 0.046 |  |  |
| CC(Br)(CBr)Cn1cc(Br)c(=O)c2ccc(Cl)cc21 (stereo unspecified) | inactive | inactive | inactive | inactive | 3.18 | 4.02 | 31.8 | 10 |
| CC[C@H]1CN2CCc3cc(OC)c(OC)cc3[C@@H]2C[C@@H]1C[C@H]1NCCc2cc(OC)c(OC)cc21 [EMETINE] |  |  |  |  |  |  | 0.092 |  |

Reference: ChEMBL document CHEMBL3112540, “Synthesis of halogenated 4-quinolones and evaluation of their antiplasmodial activity” (Bioorg Med Chem Lett, 2014)
